Data from patent EP1202724B1, “METHOD FOR TREATING CHRONIC PAIN USING MEK INHIBITORS” (WARNER-LAMBERT COMPANY, priority 1999, dated 2001).
Entries after “also recorded” stand apart in the source; their conditions may differ.

Legend:
MEK = assay: affinity (binding affinities) of the MEK inhibitors; conditions: affinity of the MEK inhibitors tested in the CCI model
[1] = tested on: CCI-induced static allodynia; assay: static allodynia in CCI animals after intrathecal administration of other MEK inhibitors (Biological Example 3); format: in vivo, rat; conditions: for magnitude of the antiallodynic effect: intrathecal, 30µg of PD 184352 compared with 100µg of pregabalin
From the text: (§1) Animals were anaesthetised with 2% isoflurane 1:4 O2/N2O mixture maintained during surgery via a nose cone. The sciatic nerve was ligated as previously described by Bennett and Xie, 1988. Animals were placed on a homeothermic blanket for the duration of the procedure. After surgical preparation the common sciatic nerve was exposed at the middle of the thigh by blunt dissection through biceps femoris. Proximal to the sciatic trifurcation, about 7mm of nerve was freed of adhering tissue and 4 ligatures (4-0 silk) were tied loosely around it with about 1mm spacing. The incision was closed in layers and the wound treated with topical antibiotics.
(§2) PD 198306 and pregabalin were administered intrathecally in a volume of 10 µl using a 100 µl Hamilton syringe by exposing the spine of the rats under brief isoflurane anaesthesia. Injections were made into the intrathecal space between lumbar region 5-6 with a 10 mm long 27 gauge needle. Penetrations were judged successful if there was a tail flick response. The wound was sealed with an autoclip and rats appeared fully awake within 2-3 min following injection.
(§3) Mechanical hypersensitivity was measured using Semmes-Weinstein von Frey hairs (Stoelting, Illinois, U.S.A.). Animals were placed into wire mesh bottom cages allowing access to the underside of their paws. Animals were habituated to this environment prior to the start of the experiment. Mechanical hypersensitivity was tested by touching the plantar surface of the animals right hind paw with von Frey hairs in ascending order of force ( 0.7, 1.2, 1.5, 2, 3.6, 5.5, 8.5, 11.8, 15.1 and 29g) for up to 6sec. Once a withdrawal response was established, the paw was re-tested, starting with the next descending von Frey hair until no response occurred. The highest force of 29g lifted the paw as well as eliciting a response, thus represented the cut off point. The lowest amount of force required to elicit a response was recorded as the paw withdrawal threshold (PWT) in grams.
The animals and methods for developing chronic constriction injury in the rat, injecting test compounds, and evaluation of static allodynia were according to Example 2 above. […] Static allodynia was assessed with von Frey hairs, before (baseline, BL) and 0.5h, 1h and 2h after intrathecal administration of the compounds
Pregabalin was dissolved in water. All compounds were administered intrathecally in a 10µl volume.
(§4) Data were analysed using a Kruskall-Wallis ANOVA for non-parametric results, followed when significant by Mann-Whitney's t test vs vehicle group.

APK = APK IC50; format: biochemical
[2] = tested on: CCI-induced static allodynia; assay: CCI-induced static allodynia (chronic constriction injury of the sciatic nerve), von Frey hairs (Biological Example 2); format: in vivo, rat
Method: (§5) Male Sprague Dawley rats (250-300g), obtained from Charles River, Margate, U.K.) were housed in groups of 3-6. All animals were kept under a 12h light/dark cycle (lights on at 07h 00min) with food and water ad libitum. All experiments were carried out by an observer blind to drug treatments.
as §1, §2, §3
(§6) Static allodynia was assessed with von Frey hairs, before (baseline, BL) and 0.5h, 1h and 2h after intrathecal or intraplantar administration of PD 198306 (1-30µg, i.t.), vehicle (cremophor:ethanol:water, 1:1:8) or pregabalin (10µg, i.t). For oral administration experiments, static allodynia was assessed with von Frey hairs, before (baseline, BL) and 1h after oral administration of PD 198306 (3-30mg/kg, p.o.), vehicle (cremophor:ethanol:water, 1:1:8) or pregabalin (30mg/kg, p.o.). Animals were administered again the same compounds on the following day, both in the morning and the afternoon. Static allodynia was assessed before and 1h after the morning administration. In the afternoon static allodynia was assessed before, 1h, 2h and 3h after administration for streptozocin treated animals. CCI animals were assessed before, 1h and 2h after administration
(§7) PD 198306 and pregabalin were synthesised at Parke-Davis (Ann Arbor, Ml, USA). PD 198306 was suspended in cremophor:ethanol:water (1:1:8) vehicle. Pregabalin was dissolved in water. Both compounds were administered orally, intrathecally or intraplantar in volumes of 1ml/kg, 10µl and 100µl respectively. Streptozocin (Aldrich, UK) was dissolved in 0.9% w/v NaCl and administered intraperitoneally in a volume of 1ml/kg.
as §4

[3] = tested on: streptozocin-induced static allodynia; assay: streptozocin-induced static allodynia, von Frey hairs, oral administration (Biological Example 1); format: in vivo, rat
Method: Male Sprague Dawley rats (250-300g), obtained from Bantin and Kingman, (Hull, U.K.) were housed in groups of 3. All animals were kept under a 12h light/dark cycle (lights on at 07h 00min) with food and water ad libitum. All experiments were carried out by an observer blind to drug treatments.
Diabetes was induced in rats by a single i.p. injection of streptozocin (50 mg/kg) as described previously (Courteix et al., 1993).
as §3, with “to 6 sec.” for “to 6sec.”, “of 29 g” for “of 29g”
PD 198306 [N-Cyclopropylmethoxy-3,4,5-trifluoro-2-(4-iodo-2-methylphenylamino)-benzamide] and Cl-1008 (pregabalin) were synthesized at Parke-Davis (Ann Arbor, Ml, USA). PD 198306 was suspended in cremophor:ethanol:water (1:1:8) vehicle. Pregabalin was dissolved in water. Both compounds were administered orally. Streptozocin (Aldrich, UK) was dissolved in 0.9% w/v NaCI and administered intraperitoneally. Drug administrations were made in a volume of 1 ml/kg.
The static allodynia data were analysed using a Kruskall-Wallis ANOVA for non-parametric results, followed when significant by Mann-Whitney's t test.
Static allodynia was assessed with von Frey hairs, before (baseline, BL) and 1h after oral administration of PD 198306 (30mg/kg, p.o.), vehicle (cremophor:ethanol:water, 1:1:8) or pregabalin (30mg/kg, p.o.) (test). Animals were administered again the same compounds on the following day, both in the morning and the afternoon. Static allodynia was assessed only before and 1h after the afternoon administration, in order to minimise the habituation of the animals to the testing conditions. Animals treated with pregabalin received water in the morning administration, in order to avoid the potential development of tolerance to the compound with repeated administration.

[4] = tested on: streptozocin-induced static allodynia; assay: streptozocin-induced static allodynia, von Frey hairs, oral, intrathecal or intraplantar administration (Biological Example 2); format: in vivo, rat
Method: as §5
Diabetes was induced in rats by a single i.p. injection of streptozocin (50mg/kg) as described previously (Courteix et al., 1993).
as §2, §3, §6, §7, §4

[5] = single administration 30mg/kg p.o., 1h after administration
[6] = intrathecal, streptozocin animals

For `NS(=O)(=O)c1cc(C(=O)NOCC2CC2)c(Nc2ccc(I)cc2Cl)c(F)c1F` [PD219622, 2-(2-chloro-4-iodo-phenylamino)-N-cyclopropylmethoxy-3,4-difluoro-5-sulfamoyl-benzamide], the IC50 (MEK) was 100 nM and the “effect on static allodynia” value ([1]; intrathecal 30µg) was “had no significant effect”.

`O=C(NOCC1CC1)c1ccc(F)c(F)c1Nc1ccc(I)cc1Cl` [PD 184352] was tested, and the “duration of antiallodynic effect post-injection” value ([1]; intrathecal 30µg) was 30 min, the “effect on static allodynia” value ([1]; intrathecal 30µg) was “blocked the maintenance of static allodynia” and the “magnitude of the antiallodynic effect” value [1] was “similar”.

With `O=C(O)c1cc([N+](=O)[O-])c(Nc2ccc(I)cc2Cl)c(F)c1Nc1ccc(I)cc1Cl` [2,4-bis-(2-chloro-4-iodo-phenylamino)-3-fluoro-5-nitrobenzoic acid] the IC50 (APK) was 29.6 nM.

For `O=S(=O)(NOCC1CC1)c1ccc(F)c(F)c1Nc1ccc(I)cc1Cl` [PD 0297447, 2-(2-Chloro-4-iodo-phenylamino)-N-cyclopropylmethoxy-3,4-difluoro-benzenesulfonamide], the IC50 (MEK) was 965 nM, the IC50 (APK) was 965 nM and the “effect on static allodynia” value ([1]; intrathecal 30µg) was “had no significant effect”.

With `CC(C)C[C@H](CN)CC(=O)O` [pregabalin, reference compound] the “magnitude of the antiallodynic effect” value [1] was “similar”, the CCI-induced static allodynia [2, 5] was “significantly blocked” and the streptozocin-induced static allodynia [3, 5] was “significantly blocked”. For the same compound, the streptozocin-induced static allodynia [4, 5] was “significantly blocked”.

`COC(=O)c1cc(S(=O)(=O)N(C)C)c(F)c(F)c1Nc1ccc(I)cc1Cl` [2-(2-chloro-4-iodo-phenylamino)-5-dimethylsulfamoyl-3,4-difluoro-benzoic acid methyl ester] showed an IC50 (APK) of 222 nM.

`Cc1cc(I)ccc1Nc1c(C(=O)NOCC2CC2)cc(F)c(F)c1F` [PD 198306, N-Cyclopropylmethoxy-3,4,5-trifluoro-2-(4-iodo-2-methylphenylamino)-benzamide] was tested, and the CCI-induced static allodynia ([2]; 3-30mg/kg p.o., single or multiple administration) was “had no effect; also recorded: neither a single or multiple administration of PD 198306 (3-30mg/kg, p.o) had any effect”, the static allodynia ([2]; intraplantar 3mg/100µl, CCI animals) was “had no effect” and the “maintenance of static allodynia” value ([2]; intrathecal 30µg (highest dose), CCI animals) was “totally blocked; also recorded: significantly blocked”. The “maintenance of static allodynia” value ([2]; intrathecal 1-30µg, CCI animals) was “dose-dependently blocked”, the “duration of antiallodynic effect” value ([2]; intrathecal, CCI animals) was “up to 1 h” and the “minimum effective dose (MED)” value ([2]; intrathecal, CCI animals) was 10 µg. For the same compound, the “duration of antiallodynic effect” value ([2]; intrathecal, CCI animals, listed as PD198306) was 1 h, the streptozocin-induced static allodynia ([3]; 30mg/kg p.o., 1h after the third administration (administered twice more on the following day)) was “significantly blocked” and the “persistence of the effects on streptozocin-induced static allodynia” value ([3]; 30mg/kg p.o., day after the third administration) was “had disappeared by the following day”. The streptozocin-induced static allodynia [3, 5] was “had no effect”, the “duration of block of streptozocin-induced static allodynia” value ([4]; 30mg/kg p.o., after the third administration) was 2 h and the static allodynia ([4]; intraplantar 3mg/100µl, streptozocin animals) was “had no effect”. For the same compound, the “maintenance of static allodynia” value ([4]; intrathecal 30µg (highest dose), streptozocin animals) was “totally blocked; also recorded: significantly blocked”, the “maintenance of static allodynia” value ([4]; intrathecal 1-30µg, streptozocin animals) was “dose-dependently blocked” and the “duration of antiallodynic effect” value [4, 6] was “up to 1 h”. The “minimum effective dose (MED)” value [4, 6] was 3 µg, the “duration of antiallodynic effect” value ([4]; intrathecal, streptozocin animals, listed as PD198306) was 1 h and the streptozocin-induced static allodynia ([4]; p.o., 30mg/kg, after the third administration (3 doses over two days), 30 mg/kg) was “transient effect; also recorded: significantly blocked”. For the same compound, the streptozocin-induced static allodynia ([4]; single administration 3-30mg/kg p.o., 1h after administration) was “had no effect”.
